Eleven compounds from patent publication US10059663B2, “Aromatic compound and use thereof” (Kyoto Pharmaceutical Industries, Ltd., priority 2013, dated 2018) can be followed below.

Each structure is given as a SMILES string.

One test deals with female F344 rats. The test can be described thus: Influence on bone density (ovariectomy, femur, DXA). Type of test: in vivo, rat. The settings on record: at not more than 10 mg/kg; orally once per day, 6 or 7 days per week, 8 weeks; ovariectomized 12-week-old female F344 rats; femur by DXA. The source says: 12-week-old female F344 rats (SLC) underwent ovariectomy or sham surgery under anesthesia. The test compound was suspended in 0.5% methylcellulose solution (Wako Pure Chemical Industries, Ltd. Cat. No. 133-14255) and orally administered once per day, 6 or 7 days per week, from two days after the surgery. A 0.5% methylcellulose solution was orally administered to a control group. At 8 weeks from the administration, they were euthanized by drawing the whole blood from the abdominal artery under anesthesia, and the left and right femurs were excised.
The soft tissues were removed from the excised femurs, and the bone density was measured by DXA device DCS-600R (Aloka Co., Ltd.). The bone density was evaluated for the whole femur as well as the whole divided into three equal portions of proximal end, diaphysis and distal end portion.

Test [1] deals with Mouse bone marrow-derived mesenchymal cell line ST2 cells. Put plainly: Osteoblast differentiation test (alkaline phosphatase activity). Type of test: cell-based. To be noted: ST-2, 96 h, at 0.1 μg/mL, 4 days of culture, absorbance at 405 nm, DMSO control = 100%, read-out: alkaline phosphatase activity (increase rate in absorbance, control as 100%). How it is done:
Mouse bone marrow-derived mesenchymal cell line ST2 cells (source of supply: RIKEN) were seeded in α-MEM medium containing 10% fetal bovine serum (source of supply: GIBCO BRL Cat. No. 12000-022) in a 96 well plate at a cell density of 4×10^3 cells/0.1 mL/well, and cultured for 24 hr under the conditions of 37° C., 5% CO2. Then, each test compound was added at a final concentration of 0.001-10 μM, and the final concentration 0.1% (v/v) of DMSO was added to the control. After 4 days of culture, alkaline phosphatase (ALP) activity was measured by the following method.
The medium in the cultured 96 well plate was removed, the cells were washed with PBS buffer (KCl 0.2 g/L, KH2PO4 0.2 g/L, Na2HPO4.12H2O 2.9 g/L, NaCl 8 g/L) (100 μL/well), cell lysate (10 mM MgCl2, 2% (v/v) Triton X-100) (50 μL/well) was added, and the mixture was stirred at room temperature for 3 min. A substrate solution (50 mM diethanolamine (Wako Pure Chemical Industries, Ltd. Cat. No. 099-03112), 20 mM […] (Nacalai Tesque Cat. No. 25019-81)) (50 μL/well) was added, and the mixture was left standing at room temperature for 9 min. 1N NaOH 50 μL/well was added to discontinue the reaction, and the absorbance at 405 nm was measured by a microplate reader (Dainippon Pharmaceutical Co., Ltd.)
An increase rate (%) in the absorbance by the test compound was calculated based on the absorbance of the control as 100%, and the differentiation degree of the osteoblast was evaluated.

Consider `C[C@@H](O)c1ccc(C(N)=O)cc1Oc1ccc(OCCOC2CCOCC2)cc1` [Example 43, (R)-4-(1-hydroxyethyl)-3-{4-[2-(tetrahydropyran-4-yloxy)ethoxy]phenoxy}benzamide], for which the bone density entry in the test with female F344 rats is recorded as “significantly increased”. Further, the activity at 0.1 µg/mL in test [1] was no less than 200%.
In the same order, the values of `CC(=O)c1ccc(C(N)=O)cc1Oc1ccc(OCCOC2CCOCC2)cc1` [Example 32, 4-acetyl-3-{4-[2-(tetrahydropyran-4-yloxy)ethoxy]phenoxy}benzamide] are “significantly increased” and no less than 200%.
For the compound `CC(O)c1ccc(C(N)=O)cc1Oc1ccc(OCCOC2CCOCC2)cc1` (centres unmarked) [Example 38, 4-(1-hydroxyethyl)-3-{4-[2-(tetrahydropyran-4-yloxy)ethoxy]phenoxy}benzamide], the bone density entry in the test with female F344 rats is listed as “significantly increased”. Moreover, the activity at 0.1 µg/mL in test [1] is no less than 200%.
In the same order, the values of `CC(=O)c1ccc(C(N)=O)cc1Oc1ccc(OCCOC2CCOC2)cc1` (centres unmarked) [Example 67] are “significantly increased” and no less than 200%.
In the same order, the values of `COc1cc(Nc2ccc(N3CC(OCCO)C3)cc2)c(NC(C)=O)cn1` [Example 1, N-(4-{4-[3-(2-hydroxyethoxy)azetidin-1-yl]phenylamino}-6-methoxypyridin-3-yl)acetamide] are “significantly increased” and no less than 200%.
For the compound `CC(=O)c1ccc(C(N)=O)cc1Nc1ccc(OCCOC2CCOC2)cc1` (centres unmarked) [Example 53], the activity at 0.1 µg/mL in test [1] was no less than 200%.
Consider `C[C@@H](O)c1ccc(C(N)=O)cc1Oc1ccc(OCCOC2CCOC2)cc1` (some centres unmarked) [Example 77], for which the bone density result in the test on female F344 rats is listed as “significantly increased”. Further, the activity at 0.1 µg/mL in test [1] is no less than 200%.
On to `COc1cc(Nc2ccc(N3CC(N4CCOCC4)C3)cc2)c(NC(C)=O)cn1` [Example 9, N-{6-methoxy-4-[4-(3-morpholin-4-ylazetidin-1-yl)phenylamino]pyridin-3-yl}acetamide], for which the activity at 0.1 µg/mL in test [1] is no less than 200%.
For `CC(=O)c1ccc(C(N)=O)cc1Oc1ccc(COCCOC(C)C)cc1` [Example 40, 4-acetyl-3-[4-(2-isopropoxyethoxymethyl)phenoxy]benzamide], the activity at 0.1 µg/mL in test [1] was no less than 200%.
`CC(=O)c1ccc(C(N)=O)cc1Oc1ccc(N2CC(CO)C2)cc1` [Example 95]: the activity at 0.1 µg/mL in test [1] was no less than 200%.
Still for that read-out and setting: next, `CC(=O)c1ccc(C(N)=O)cc1Nc1ccc(N2CC(OCCO)C2)cc1` [Example 6, 4-acetyl-3-{4-[3-(2-hydroxyethoxy)azetidin-1-yl]phenylamino}benzamide]: no less than 200%.
